The results in this text go back to US7713991B2, “Imidazo[[1, 5-A] pyridine derivatives and methods for treating aldosterone mediated diseases” (Novartis AG, priority 2003, dated 2010).

The target in one series is aldosterone synthase (Rattus norvegicus, UniProt P30099). The experiment in a line: aldosterone synthase inhibitory activity in vitro. Format: biochemical. Particulars: rat adrenal glomerulosa homogenate, corticosterone substrate; read-out: inhibits the aldosterone synthase activity, IC50 value.
Chain of aldosterone synthase (P30099 35-510): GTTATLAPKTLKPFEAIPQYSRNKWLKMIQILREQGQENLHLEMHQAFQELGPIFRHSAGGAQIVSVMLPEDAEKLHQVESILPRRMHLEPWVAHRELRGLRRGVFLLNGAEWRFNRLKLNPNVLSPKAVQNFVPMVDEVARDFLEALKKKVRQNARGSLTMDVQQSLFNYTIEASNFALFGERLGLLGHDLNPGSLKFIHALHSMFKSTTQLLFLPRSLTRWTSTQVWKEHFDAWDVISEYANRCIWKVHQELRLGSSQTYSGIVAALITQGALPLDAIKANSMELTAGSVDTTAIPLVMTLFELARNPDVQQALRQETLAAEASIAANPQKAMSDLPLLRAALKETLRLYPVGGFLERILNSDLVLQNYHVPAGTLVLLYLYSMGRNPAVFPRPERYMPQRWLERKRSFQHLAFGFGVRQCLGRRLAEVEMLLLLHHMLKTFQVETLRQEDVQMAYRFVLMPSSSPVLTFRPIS
Description: The aldosterone synthase inhibitory activity in vitro may be determined as follows:
Adult male Sprague-Dawley rats weighing 125-150 g are obtained from Harlan Farms. All animals are caged in pairs and maintained under standard conditions of light and temperature. The animals are placed on a sodium depleted diet (0.01-0.02%) from Harland Teklad, Madison Wis. (Cat. No. TD90228) and maintained on normal drinking water ad libitum. The animals are maintained on this diet for two to four weeks prior to harvesting the adrenal glomerulosa cells. The rats are killed by CO2 inhalation, and the adrenals are immediately removed and placed in the same ice-cold buffer used during homogenization and assay of the enzyme preparation. The adrenals are de-capsulated to obtain the glomerulosa tissue. The tissue is homogenized in a glass homogenizer containing Tris assay buffer (8.5 mM MgCl2, 2.7 mM CaCl2, 3.13 mM KCl, 7.59 mM NaCl, 0.1% TEA and 50 mM Tris HCl adjusted to pH 7.4). […] The plates are scanned for radioactivity with a Bioscan System 200 Imaging Scanner (Bioscan, Ish. D.C.). The two products of the aldosterone synthase, 18—OH-corticosterone and aldosterone are scraped and counted in a liquid scintillation counter (Beckman LS6000TA, Beckman Instr., Palo Alto, Calif.).
The slope (Hill Coefficient) and x intercept (IC50) are determined by linear regression of the experimental data.
What is called IC50 is the concentration at which inhibition is half-maximal. Regarding `Cl.c1ccc2c(-c3cccc4cncn34)cccc2c1` [Example 1, 5-Naphthalen-1-yl-imidazo[1,5-a]pyridine hydrochloride], the IC50 is about 50 nM.

Tested on in a further series: not given
Assay: not given
Details: not given
As a reminder, the melting point is the temperature, or range, at which the solid turns liquid. For the compound `Cl.c1ccc(-c2ccc(-c3cccc4cncn34)cc2)cc1`, the melting point was in the range of 240 to 242 °C. Same read-out and setting: then `Cl.c1ccc(-c2ccccc2-c2cccc3cncn23)cc1`, with 200 to 201 °C.

For `Cl.c1ccc2c(-c3cccc4cncn34)coc2c1`, the melting point fell in the range of 96 to 98 °C. In turn, `Cl.O=C(OCc1ccccc1)N1CC=C(c2cccc3cncn23)CC1` displayed a melting point of 149 to 152 °C.

The compound `Cl.c1ccc2c(-c3cccc4cncn34)cccc2c1` [Example 1, 5-Naphthalen-1-yl-imidazo[1,5-a]pyridine hydrochloride] yielded a melting point of 222 to 223 °C.
